Laboratory results published in patent US10206900B2, “Treatments for fibrotic diseases” (MOR RESEARCH APPLICATIONS LTD., priority 2013, dated 2019).

Tests used:
RPE cells [1] = test: α-SMA expression (immunostaining) upon TGF-β1 stimulation; assay type: cell-based; settings: 5Z-7-oxozeaenol 1 μM pretreatment 1 hour, TGF-β1 2.5 ng/ml, serum-free
Description: (§1) FIGS. 2A-2C TAK1 regulates RPE cells EMT phenotype upon TGF-β stimulation. FIG. 2A: RPE cells were serum-starved for 16 hours, pretreated with 5Z-7-oxozeaenol (1 μM) or left untreated for 1 hour. The cells were then treated with TGF-β1 (2.5 ng/ml) as described herein for 24 h and immunostained with α-SMA antibodies (red) and DAPI (blue). Representative photographs of three independent experiments. The histogram in the bottom panel represents quantification of α-SMA antibody pixel intensity. FIG. 2B: RPE cells were serum-starved for 16 hours, then treated with mitomycin C (10 ng/ml) for 3 h. Thereafter, pretreated with 5Z-7-oxozeaenol (1 μM) or Dimethyl sulfoxide (DMSO) for 1 hour. Following this process a scratch was performed in the cell monolayer and the serum free medium was supplemented with TGF-β1 (2.5 ng/ml) or left unsupplemented. Scratches were photo-documented at the indicated times (top panel) and their width was measured using Image-J software. […] Bars are Mean±SD. FIG. 2C: RPE cells were serum-starved for 16 hours then pretreated with 5Z-7-oxozeaenol (1 μM) or SB431542 (10 μM), or DMSO for 1 hour. […] Total MMP-9 activities were processed by gelatin zymography (top panel) and the band intensity values were calculated by Quantity One® 1-D analysis software. […] Data is expressed as the Mean±SD. […]

RPE cells [2] = test: Scratch assay, cell migration upon TGF-β1 stimulation; assay type: cell-based; settings: 1 μM, TGF-β1 2.5 ng/ml, 24 and 48 hours
Description: as §1

MMP-9 = MMP-9 activity by gelatin zymography in RPE cell supernatants; assay type: cell-based; settings: RPE cells, pretreatment 1 μM, TGF-β1 2.5 ng/ml, 24 hours; TGF-β1 alone 3.2 fold
Description: FIGS. 2A-2C TAK1 regulates RPE cells EMT phenotype upon TGF-β stimulation. FIG. 2A: RPE cells were serum-starved for 16 hours, pretreated with 5Z-7-oxozeaenol (1 μM) or left untreated for 1 hour. The cells were then treated with TGF-β1 (2.5 ng/ml) as described herein for 24 h and immunostained with α-SMA antibodies (red) and DAPI (blue). Representative photographs of three independent experiments. The histogram in the bottom panel represents quantification of α-SMA antibody pixel intensity. FIG. 2B: RPE cells were serum-starved for 16 hours, then treated with mitomycin C (10 ng/ml) for 3 h. Thereafter, pretreated with 5Z-7-oxozeaenol (1 μM) or Dimethyl sulfoxide (DMSO) for 1 hour. Following this process a scratch was performed in the cell monolayer and the serum free medium was supplemented with TGF-β1 (2.5 ng/ml) or left unsupplemented. Scratches were photo-documented at the indicated times (top panel) and their width was measured using Image-J software. […] Bars are Mean±SD. FIG. 2C: RPE cells were serum-starved for 16 hours then pretreated with 5Z-7-oxozeaenol (1 μM) or SB431542 (10 μM), or DMSO for 1 hour. […] Total MMP-9 activities were processed by gelatin zymography (top panel) and the band intensity values were calculated by Quantity One® 1-D analysis software. […] Data is expressed as the Mean±SD.

Smad2/3 = Smad2/3 phosphorylation by immuno-blot in W2b liver hepatocytes; assay type: cell-based; settings: 1 μM for 1 hour, TGF-β 2.5 ng/ml
Description: FIG. 10: Inhibition of TAK1 abolishes the activation of TGF-β cascades in liver cells. TGF-β1 up-regulates-Smad 2/3 and p38 activation and E-cadherin expression via TAK1 activity in hepatic cells. W2B liver hepatocytes cells were treated with or without 5Z-7-oxozeaenol followed by TGF-β treatment and Smad2/3 and p38 phosphorylation patterns were examined by immuno-blots. W2b liver hepatocytes cells were treated with or without 5Z-7-oxozeaenol (1 μM) for 1 hour followed by TGF-β treatment (2.5 ng/ml) for the indicated times. Smad2/3 and p38 phosphorylation patterns were examined by immuno-blots as described above.

p38 = p38 phosphorylation by immuno-blot in HT29 colon cells; assay type: cell-based; settings: HT29 Human colon cells, TGF-β treatment, versus untreated cells
Description: FIG. 11. Inhibition of TAK1 abolishes the activation of TGF-β cascades in colon cells. TGF-β1 up-regulates-Smad 2/3 and p38 activation via TAK1 activity in colon cells. HT29 Human colon cells were treated with or without 5Z-7-oxozeaenol followed by TGF-β treatment. Smad2/3 and p38 phosphorylation patterns were examined by immuno-blots. HT29 Human colon cells were treated as in the previous examples with or without 5Z-7-oxozeaenol, followed by TGF-β treatment. Inhibition of TAK1 was assayed by observation of Smad2/3 and p38 phosphorylation patterns by immuno-blots.

c57Black mice [3] = test: Dispase-induced PVR in mice (H&E histology); assay type: in vivo; settings: treated 96 hour post-dispase, H&E 96 hours later
Description: 96 hour post-treatment, the mice were further treated with 5Z-7-oxozeaenol left untreated, and 96 hours later, mice were sacrificed, eyes were enucleated and stained with hematoxylin and eosin (H&E). […] As shown in the middle panel, dispase caused PVR, manifested by loss of normal cellular architecture of the retina, presence of numerous inflammatory cells and presence of RPE cells throughout all retinal layers compared to the control (left panel). As shown in the right panel, treatment with 5Z-7-oxozeaenol maintained the normal retinal structure and prevented the development of the fibrotic response. 7-8 week old c57Black mice were treated or left untreated with dispase to generate PVR in the mice. 96 hour post-treatment, the mice were treated with 5Z-7-oxozeaenol or left untreated, and 96 hour later, mice were sacrificed, eye were […] and stained with hematoxylin and eosin (H&E).

c57Black mice [4] = test: DSS-induced colitis in mice, fibrotic markers; assay type: in vivo; settings: DSS 1.5% eight days, IP 180 ng per animal daily
Description: C57black mice were treated with dextran sodium sulfate (DSS)-S 1.5% diluted in water for eight days and with or without 5Z-7 (1 uM) was IP injected total 180 ng for each animal Daily. After eight days the mice underwent evaluation to detect abnormalities in the Colom structure. N=14 mice for each group, Student T-test was used to determine the p value. The chart in FIG. 13 compares known markers that are considered as the main morphological phenotype for colitis. […] C57black mice were treated with dextran sodium sulfate (DSS)-S 1.5% diluted in water for eight days and with or without 5Z-7 (1 uM) IP injected total 180 ng for each animal daily. After eight days the mice underwent evaluation to detect abnormalities in the colon structure. In mice treated with DSS all markers of fibrosis such as: granulation, Transparency, fibrin and blood vessels were elevated by the DSS.

With `COc1cc(O)c2c(c1)/C=C/C[C@H](O)[C@H](O)C(=O)/C=C\C[C@H](C)OC2=O` [5Z-7-oxozeaenol] the “TGF-β1-stimulated α-SMA expression” value (RPE cells [1]) was “significantly attenuated”, the “migratory capacity of TGF-β1 stimulated cells (scratch assay)” value (RPE cells [2]) was “abolished their migratory capacity” and the “MMP-9 activity, fold higher than the control group” value (MMP-9) was 1.59 fold. For the same compound, the Smad2/3 activation (Smad2/3) was “barely detectable”, the p38 phosphorylation (p38) was “significantly inhibited” and the “development of the fibrotic response / retinal structure (PVR)” value (c57Black mice [3]) was “prevents the development of the fibrotic response”. The “fibrotic markers of colitis (granulation, Transparency, fibrin, blood vessels)” value (c57Black mice [4]) was “reduce the fibrotic markers”.
